Test results reported in patent US7629356B2, “Substituted pyrrolo[3,4-b]pyridinamines and pharmaceutical compositions” (AstraZeneca AB, priority 2007, dated 2009).

molecular target: T1, human β-Secretase (soluble part AA1-AA460, sBACE-Fc) (Homo sapiens, UniProt P56817); test: TR-FRET assay; type: biochemical; conditions: substrate (Europium)CEVNLDAEFK(Qsy7) 100 nM, pH 4.5, 15 min at RT
T1 construct: The soluble part of the human β-Secretase (AA1 -AA460) was cloned; Fc domain of IgG1; made in house
T1 sequence (P56817 22-460): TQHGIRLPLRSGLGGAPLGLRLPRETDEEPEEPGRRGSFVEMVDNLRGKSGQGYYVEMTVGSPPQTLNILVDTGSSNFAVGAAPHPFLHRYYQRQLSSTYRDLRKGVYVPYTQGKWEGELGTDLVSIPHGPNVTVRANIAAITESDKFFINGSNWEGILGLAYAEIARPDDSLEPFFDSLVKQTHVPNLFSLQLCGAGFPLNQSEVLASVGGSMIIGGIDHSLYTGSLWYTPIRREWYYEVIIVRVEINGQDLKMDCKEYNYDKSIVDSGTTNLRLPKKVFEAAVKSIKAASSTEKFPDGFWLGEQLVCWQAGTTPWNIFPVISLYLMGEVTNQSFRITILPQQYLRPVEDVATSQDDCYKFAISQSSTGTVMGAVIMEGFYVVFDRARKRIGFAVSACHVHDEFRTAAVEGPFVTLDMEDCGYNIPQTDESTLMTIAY
Description: The enzyme used in the IGEN Cleavage-, Fluorescent-, TR-FRET- and BiaCore assays is described as follows:
The soluble part of the human β-Secretase (AA1 -AA460) was cloned into the ASP2-Fc10-1-IRES-GFP-neoK mammalian expression vector. The gene was fused to the Fc domain of IgG1 (affinity tag) and stably cloned into HEK 293 cells. Purified sBACE-Fc is stored in Tris buffer, pH 9.2 and has a purity of 95%.
Enzyme was diluted to 6 μg/mL and the substrate (Europium)CEVNLDAEFK(Qsy7) to 200 nM in reaction buffer (NaAcetate, chaps, triton x-100, EDTA pH 4.5). Compounds were diluted to the desired concentration in dimethyl sulfoxide (final dimethyl sulfoxide concentration in assay is 5%). The assay was done in a Costar 384 well round bottom, low volume, non-binding surface plate (Corning #3676). Enzyme (9 μL) and 1 μL of compound in dimethyl sulfoxide was added to the plate, mixed and pre-incubated for 10 min. Substrate (10 μL) was added and the reaction proceeded in the dark for 15 min at RT. The reaction was stopped with the addition of 7 μL NaAcetate, pH 9. The fluorescence of the product was measured on a Victor II plate reader with an excitation wavelength of 340 nm and an emission wavelength of 615 nm. The final concentration of the enzyme was 2.7 μg/ml and the final concentration of the substrate was 100 nM (Km of 290 nM). The dimethyl sulfoxide control defined the 100% activity level and 0% activity was defined by exclusion of the enzyme (using reaction buffer instead).

| Structure (SMILES) | Ki [nM] |
| --- | --- |
| NC1=NC(c2ccncc2)(c2cccc(-c3cncnc3)c2)c2cnccc21 (stereo not drawn) [Example 16, 3-Pyridin-4-yl-3-(3-pyrimidin-5-ylphenyl)-3H-pyrrolo[3,4-c]pyridin-1-amine] | 91 |
| COc1cccc(-c2cccc(C3(c4ccncc4)N=C(N)c4ncccc43)c2)c1F (stereo not drawn) [Example 12, 5-(2′-Fluoro-3′-methoxybiphenyl-3-yl)-5-pyridin-4-yl-5H-pyrrolo[3,4-b]pyridin-7-amine 0.5 acetate] | 398 |
| NC1=NC(c2ccncc2)(c2cccc(-c3cncnc3)c2)c2cccnc21 (stereo not drawn) [Example 10, 5-Pyridin-4-yl-5-(3-pyrimidin-5-ylphenyl)-5H-pyrrolo[3,4-b]pyridin-7-amine] | 324 |
| COc1ccc(C2(c3cccc(-c4cccnc4F)c3)N=C(N)c3ncccc32)cc1 (stereo not drawn) [Example 6, 5-[3-(2-Fluoropyridin-3-yl)phenyl]-5-(4-methoxyphenyl)-5H-pyrrolo[3,4-b]pyridin-7-amine] | 275 |
| NC1=NC(c2ccncc2)(c2cccc(-c3cccnc3F)c2)c2cnccc21 (stereo not drawn) [Example 17, 3-[3-(2-Fluoropyridin-3-yl)phenyl]-3-pyridin-4-yl-3H-pyrrolo[3,4-c]pyridin-1-amine] | 62 |
| NC1=NC(c2ccncc2)(c2cccc(-c3cccnc3F)c2)c2cccnc21 (stereo not drawn) [Example 9, 5-[3-(2-Fluoropyridin-3-yl)phenyl]-5-pyridin-4-yl-5H-pyrrolo[3,4-b]pyridin-7-amine] | 295 |
| NC1=NC(c2ccncc2)(c2cccc(-c3cccnc3F)c2)c2ncccc21 (stereo not drawn) [Example 21, 7-[3-(2-Fluoropyridin-3-yl)phenyl]-7-pyridin-4-yl-7H-pyrrolo[3,4-b]pyridin-5-amine] | 93 |
| COc1ccc(C2(c3cccc(-c4cccnc4)c3)N=C(N)c3ncccc32)cc1 (stereo not drawn) [Example 8, 5-(4-Methoxyphenyl)-5-(3-pyridin-3-ylphenyl)-5H-pyrrolo[3,4-b]pyridin-7-amine] | 339 |
| COc1ccc(C2(c3cccc(-c4cncnc4)c3)N=C(N)c3ncccc32)cc1 (stereo not drawn) [Example 5, 5-(4-Methoxyphenyl)-5-(3-pyrimidin-5-ylphenyl)-5H-pyrrolo[3,4-b]pyridin-7-amine] | 282 |
| COc1ccc(C2(c3cccc(-c4cncc(OC)c4)c3)N=C(N)c3ncccc32)cc1 (stereo not drawn) [Example 7, 5-(4-Methoxyphenyl)-5-[3-(5-methoxypyridin-3-yl)phenyl]-5H-pyrrolo[3,4-b]pyridin-7-amine] | 178 |
| NC1=NC(c2ccncc2)(c2cccc(-c3cncnc3)c2)c2ncccc21 (stereo not drawn) [Example 22, 7-Pyridin-4-yl-7-(3-pyrimidin-5-ylphenyl)-7H-pyrrolo[3,4-b]pyridin-5-amine] | 170 |
| COc1ccc(F)c(-c2cccc(C3(c4ccncc4)N=C(N)c4ncccc43)c2)c1 (stereo not drawn) [Example 11, 5-(2′-Fluoro-5-methoxybiphenyl-3-yl)-5-pyridin-4-yl-5H-pyrrolo[3,4-b]pyridin-7-amine 0.25 acetate] | 219 |
